# Entries after “also recorded” stand apart in the source; their conditions may differ.
# Columns and labels:
# Type in all cases: physicochemical
# [1] = Accelerated stability test, 40° C./75% RH, six months; settings: for Appearance / Assay Adipic acid (potentiometric titration) / Assay DS-6051a (HPLC)/ (anhydrous and solvent free basis) / Related substances (UPLC) Total impurities / Water content (KF) / Related substances (UPLC) Unspecified individual impurity / Crystal form (XRPD): 40° C. ± 2° C./75 ± 5% RH; for Crystal form (XRPD): consistent with reference standard
# Description: The accelerated stability test of the crystalline form A of Compound 1 adipate was performed by storing a sample at 40° C.±2° C./[…] for six months.
# [2] = Solubility of the crystalline form in buffers, SGF, FaSSIF, FeSSIF and water at 37° C. (HPLC; XRPD of undissolved solid); settings: for solubility at 2 h / solubility at 24 h: 37 °C, thermodynamic from solid
# Text: (1) a KCl/HCl buffer solution with a pH of 1.0, (2) a potassium hydrogen phthalate buffer solution with a pH of 3.0, (3) a sodium acetate trihydrate buffer solution with a pH of 4.5, (4) a potassium dihydrogen phosphate buffer solution with a pH of 6.0, (5) a potassium dihydrogen phosphate buffer solution with a pH of 7.5, (6) SGF (simulated gastric fluid), (7) FaSSIF (fasted state simulated intestinal fluids, pH=6.5), (8) FeSSIF (fed state simulated intestinal fluids, pH=5.0), and (9) water. Each mixture was then stirred in a water bath at 37° C. After equilibrated for 2 hours and 24 hours, concentrations (mg/mL) of the crystal in the mixture were measured by HPLC and the undissolved solid was evaluated by XRPD.
# [3] = Long-term stability test, 25° C./60% RH, three years; settings: for Appearance / Assay (anhydrous and solvent free basis) / Individual unspecified impurity (Maximum) / Total impurities / Water content / deF-6051: 25° C. ± 2° C./60 ± 5% RH
# Description: The long-term stability test of the crystalline form A of Compound 1 adipate was performed by storing a sample at 25°±2° C./[…] for three years.
# [4] = Dynamic Vapor Sorption (DVS), hygroscopicity
# Description: Dynamic Vapor Sorption (DVS) was performed by using Intrinsic DVS (Surface Measurement Systems, UK). A sample was weighed in an amount of 20-30 mg and was placed in a sample chamber. The measurement was performed at DMDT mode when the temperature of the sample chamber was maintained at 25±1° C.
# [5] = FaSSIF (fasted state simulated intestinal fluid), pH 6.5, fassif
# [6] = FeSSIF (fed state simulated intestinal fluid), pH 5, fessif
# [7] = KCl/HCl buffer, pH 1, simulated gastric fluid
# [8] = SGF (simulated gastric fluid), 37° C.
# [9] = SGF (simulated gastric fluid), simulated gastric fluid
# [10] = potassium dihydrogen phosphate buffer pH 6.0, 37° C.
# [11] = potassium dihydrogen phosphate buffer pH 7.5, 37° C.
# [12] = potassium dihydrogen phosphate buffer, pH 6, aqueous buffer
# [13] = potassium dihydrogen phosphate buffer, pH 7.5, aqueous buffer
# [14] = potassium hydrogen phthalate buffer pH 3.0, 37° C.
# [15] = potassium hydrogen phthalate buffer, pH 3, aqueous buffer
# [16] = sodium acetate trihydrate buffer pH 4.5, 37° C.
# [17] = sodium acetate trihydrate buffer, pH 4.5, aqueous buffer
smiles,measurement,setting,value
"C[C@@H](N)COc1ccc(-c2cnc3ccc(N[C@H](C)c4cccc(F)c4)nn23)cc1 [crystalline form A of Compound 1 adipate, 3-{4-[(2R)-2-aminopropoxy]phenyl}-N-[(1R)-1-(3-fluorophenyl)ethyl]imidazo[1,2-b]pyridazin-6-amine]",stability (in words),[1],superior stability
same,Appearance,[1]; 0 M,White
same,Assay Adipic acid (potentiometric titration),[1]; 0 M,26.2%
same,Assay DS-6051a (HPLC)/ (anhydrous and solvent free basis),[1]; 0 M,99.5%
same,Related substances (UPLC) Total impurities,[1]; 0 M,0.05%
same,Water content (KF),[1]; 0 M,0.2%
same,Related substances (UPLC) Unspecified individual impurity,"[1]; 0 M, RRT1.48",0.05%
same,Crystal form (XRPD),[1]; 0 M,conform
same,Appearance,[1]; 1 M,White
same,Assay Adipic acid (potentiometric titration),[1]; 1 M,26.5%
same,Assay DS-6051a (HPLC)/ (anhydrous and solvent free basis),[1]; 1 M,100.1%
same,Related substances (UPLC) Total impurities,[1]; 1 M,<0.05%
same,Related substances (UPLC) Unspecified individual impurity,[1]; 1 M,<0.05%
same,Water content (KF),[1]; 1 M,0.1%
same,Crystal form (XRPD),[1]; 1 M,conform
same,Appearance,[1]; 2 M,White
same,Assay Adipic acid (potentiometric titration),[1]; 2 M,26.4%
same,Assay DS-6051a (HPLC)/ (anhydrous and solvent free basis),[1]; 2 M,99.6%
same,Related substances (UPLC) Total impurities,[1]; 2 M,<0.05%
same,Related substances (UPLC) Unspecified individual impurity,[1]; 2 M,<0.05%
same,Water content (KF),[1]; 2 M,0.1%
same,Crystal form (XRPD),[1]; 2 M,conform
same,Appearance,[1]; 3 M,White
same,Assay Adipic acid (potentiometric titration),[1]; 3 M,26.2%
same,Assay DS-6051a (HPLC)/ (anhydrous and solvent free basis),[1]; 3 M,99.5%
same,Related substances (UPLC) Total impurities,[1]; 3 M,<0.05%
same,Related substances (UPLC) Unspecified individual impurity,[1]; 3 M,<0.05%
same,Water content (KF),[1]; 3 M,0.1%
same,Crystal form (XRPD),[1]; 3 M,conform
same,Appearance,[1]; 6 M,White
same,Assay Adipic acid (potentiometric titration),[1]; 6 M,26.2%
same,Assay DS-6051a (HPLC)/ (anhydrous and solvent free basis),[1]; 6 M,99.0%
same,Related substances (UPLC) Total impurities,[1]; 6 M,<0.05%
same,Related substances (UPLC) Unspecified individual impurity,[1]; 6 M,<0.05%
same,Water content (KF),[1]; 6 M,0.1%
same,Crystal form (XRPD),[1]; 6 M,conform
same,solubility at 2 h,[2]; [5],331 µg/mL
same,solubility at 24 h,[2]; [5],225 µg/mL
same,XRPD of undissolved solid,"[2]; FaSSIF (pH=6.5), 37° C.",changed
same,pH after 24 hours,"[2]; FaSSIF (pH=6.5), 37° C.",5.008
same,solubility at 2 h,[2]; [6],493 µg/mL
same,solubility at 24 h,[2]; [6],143 µg/mL
same,XRPD of undissolved solid,"[2]; FeSSIF (pH=5.0), 37° C.",Form A
same,pH after 24 hours,"[2]; FeSSIF (pH=5.0), 37° C.",4.205
same,XRPD of undissolved solid,"[2]; KCl/HCl buffer pH 1.0, 37° C.",changed
same,pH after 24 hours,"[2]; KCl/HCl buffer pH 1.0, 37° C.",3.746
same,solubility at 2 h,[2]; [7],20400 µg/mL
same,solubility at 24 h,[2]; [7],17800 µg/mL
same,XRPD of undissolved solid,[2]; [8],changed
same,pH after 24 hours,[2]; [8],5.281
same,solubility at 2 h,[2]; [9],15600 µg/mL
same,solubility at 24 h,[2]; [9],16000 µg/mL
same,solubility (in words),[2]; pH 1,superior solubility
same,XRPD of undissolved solid,[2]; [10],Form A
same,pH after 24 hours,[2]; [10],5.055
same,XRPD of undissolved solid,[2]; [11],changed
same,pH after 24 hours,[2]; [11],5.570
same,solubility at 2 h,[2]; [12],2340 µg/mL
same,solubility at 24 h,[2]; [12],1700 µg/mL
same,solubility at 2 h,[2]; [13],597 µg/mL
same,solubility at 24 h,[2]; [13],419 µg/mL
same,XRPD of undissolved solid,[2]; [14],changed
same,pH after 24 hours,[2]; [14],4.418
same,solubility at 2 h,[2]; [15],1350 µg/mL
same,solubility at 24 h,[2]; [15],852 µg/mL
same,XRPD of undissolved solid,[2]; [16],Form A
same,pH after 24 hours,[2]; [16],4.541
same,solubility at 2 h,[2]; [17],2840 µg/mL
same,solubility at 24 h,[2]; [17],2880 µg/mL
same,XRPD of undissolved solid,"[2]; water, 37° C.",Form A
same,pH after 24 hours,"[2]; water, 37° C.",5.115
same,solubility at 2 h,[2]; water,1610 µg/mL
same,solubility at 24 h,[2]; water,1410 µg/mL
same,stability (in words),[3],superior stability
same,Appearance,[3]; 0 M,White
same,Assay (anhydrous and solvent free basis),[3]; 0 M,100.0%
same,Individual unspecified impurity (Maximum),[3]; 0 M,0.09%
same,Total impurities,[3]; 0 M,0.61%
same,Water content,[3]; 0 M,0.07%
same,deF-6051,[3]; 0 M,0.46%
same,Appearance,[3]; 3 M,White
same,Assay (anhydrous and solvent free basis),[3]; 3 M,100.0%
same,Individual unspecified impurity (Maximum),[3]; 3 M,0.09%
same,Total impurities,[3]; 3 M,0.61%
same,Water content,[3]; 3 M,0.08%
same,deF-6051,[3]; 3 M,0.46%
same,Appearance,[3]; 6 M,White
same,Assay (anhydrous and solvent free basis),[3]; 6 M,100.0%
same,Individual unspecified impurity (Maximum),[3]; 6 M,0.09%
same,Total impurities,[3]; 6 M,0.54%
same,Water content,[3]; 6 M,0.11%
same,deF-6051,[3]; 6 M,0.45%
same,Appearance,[3]; 9 M,White
same,Assay (anhydrous and solvent free basis),[3]; 9 M,99.9%
same,Individual unspecified impurity (Maximum),[3]; 9 M,0.09%
same,Total impurities,[3]; 9 M,0.60%
same,Water content,[3]; 9 M,0.08%
same,deF-6051,[3]; 9 M,0.46%
same,Appearance,[3]; 12 M,White
same,Assay (anhydrous and solvent free basis),[3]; 12 M,100.2%
same,Individual unspecified impurity (Maximum),[3]; 12 M,0.09%
same,Total impurities,[3]; 12 M,0.55%
same,Water content,[3]; 12 M,0.09%
same,deF-6051,[3]; 12 M,0.46%
same,Appearance,[3]; 18 M,White
same,Assay (anhydrous and solvent free basis),[3]; 18 M,100.2%
same,Individual unspecified impurity (Maximum),[3]; 18 M,0.09%
same,Total impurities,[3]; 18 M,0.55%
same,Water content,[3]; 18 M,0.06%
same,deF-6051,[3]; 18 M,0.46%
same,Appearance,[3]; 24 M,White
same,Assay (anhydrous and solvent free basis),[3]; 24 M,99.7%
same,Individual unspecified impurity (Maximum),[3]; 24 M,0.09%
same,Total impurities,[3]; 24 M,0.54%
same,Water content,[3]; 24 M,0.07%
same,deF-6051,[3]; 24 M,0.45%
same,Appearance,[3]; 36 M,White
same,Assay (anhydrous and solvent free basis),[3]; 36 M,100.0%
same,Individual unspecified impurity (Maximum),[3]; 36 M,0.09%
same,Total impurities,[3]; 36 M,0.53%
same,Water content,[3]; 36 M,0.06%
same,deF-6051,[3]; 36 M,0.44%
same,time stable at room temperature in a sealed container,"[3]; room temperature, sealed container",at least 36 months
same,crystalline form (XRPD) of the sample before and after the DVS test,[4],did not change
same,weight increase (DVS),"[4]; at 80% RH, 25±1° C.",0.235%
same,hygroscopicity (in words),[4]; from DVS weight increase at 80% RH,low hygroscopicity; also recorded: very low or nearly no hygroscopicity
